Assay results taken from patent US20220144854A1, “MACROCYCLIC COMPOUNDS” (ZENO MANAGEMENT, INC., priority 2019, published 2022).
pIC50: −log10 of the molar value.

Tests used:
Mcl-1 = Mcl-1 (Homo sapiens, UniProt Q07820); assay: Mcl-1 Homogeneous Time Resolved Fluorescence (HTRF) binding assay; conditions: HTRF; 4 nM Mcl-1, 100 nM FAM-Bak peptide; 10-dose, singlicate; read-out: Mcl-1 IC50
[1] = system: NCI-H929 (ATCC CRL-9068) cells; assay: NCI-H929 cell proliferation assay (CellTiter-Glo); format: cell-based; conditions: 72 h of compound treatment
Protocol: Cell proliferation was measured using the CellTiter-Glo® Luminescent Cell Viability Assay. The assay involved the addition of a single reagent (CellTiter-Glo® Reagent) directly to cells cultured in serum-supplemented medium.
Each compound evaluated was prepared as a DMSO stock solution (10 mM). Compounds were tested in duplicate on each plate, with a 10-point serial dilution curve (1:3 dilution). Compound treatment ([…]) was added from the compound dilution plate to the cell plate. The highest compound concentration was 10 μM (final), with a 0.1% final DMSO concentration. Plates were then incubated at 37° C., 5% CO2. After 72 h of compound treatment, cell plates were equilibrated at rt for approximately 30 mins. An equi-volume amount of CellTiter-Glo® Reagent (40 μL) was added to each well. Plates were mixed for 2 mins on an orbital shaker to induce cell lysis and then incubated at rt for 10 mins to stabilize the luminescent signal. Luminescence was recorded using an Envision plate reader according to CellTiter-Glo protocol. IC50 of each compound was calculated using GraphPad Prism by nonlinear regression analysis.

Chain of Mcl-1 (Q07820 whole entry): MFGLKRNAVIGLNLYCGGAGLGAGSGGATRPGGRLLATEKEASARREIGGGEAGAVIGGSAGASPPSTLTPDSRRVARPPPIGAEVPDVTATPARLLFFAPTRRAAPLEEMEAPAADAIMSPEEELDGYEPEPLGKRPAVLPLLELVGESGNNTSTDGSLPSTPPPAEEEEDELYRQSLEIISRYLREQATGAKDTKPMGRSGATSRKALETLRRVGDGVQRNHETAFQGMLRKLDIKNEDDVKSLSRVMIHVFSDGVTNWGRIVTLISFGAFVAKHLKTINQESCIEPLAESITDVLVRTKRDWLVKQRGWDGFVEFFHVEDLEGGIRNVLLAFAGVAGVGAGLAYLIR

Compound	pIC50 (Mcl-1)	pIC50 [1]
Cn1nc2cc1CSc1cc(c3ccccc3c1)OCCCc1c(C(=O)O)n(C)c3c(c(Cl)ccc13)-c1c(nn(C)c1C#N)CSC2 (single isomer, unassigned) [Example 1A, (Z)-1^6-Chloro-2^5-cyano-1^1,2^1,6^1-trimethyl-1^1H,2^1H,6^1H-10-oxa-4,8-dithia-1(7,3)-indola-2(4,3),6(3,5)-dipyrazola-9(3,1)-naphthalenacyclotridecaphane-1^2-carboxylic acid]	> 8.00	6.00 to 7.00
Cn1nc2cc1CSc1cc(c3ccccc3c1)OCCCc1c(C(=O)O)n(C)c3c(c(Cl)ccc13)-c1c(nn(C)c1C#N)CSC2 (single isomer, unassigned) [Example 1B, (Z)-1^6-Chloro-2^5-cyano-1^1,2^1,6^1-trimethyl-1^1H,2^1H,6^1H-10-oxa-4,8-dithia-1(7,3)-indola-2(4,3),6(3,5)-dipyrazola-9(3,1)-naphthalenacyclotridecaphane-1^2-carboxylic acid]	< 7.00	< 6.00
Cn1nc2cc1CSc1cc(c3ccccc3c1)OCCCc1c(C(=O)O)n(C)c3c(c(Cl)ccc13)-c1c(nn3c1CCCC3)CSC2 (single isomer, unassigned) [Example 2A, (Z)-1^6-Chloro-1^1,6^1-dimethyl-2^4,2^5,2^6,2^7-tetrahydro-1^1H,6^1H-10-oxa-4,8-dithia-2(3,2)-pyrazolo[1,5-a]pyridina-1(7,3)-indola-6(3,5)-pyrazola-9(3,1)-naphthalenacyclotridecaphane-1^2-carboxylic acid]	> 8.00	> 7.00
Cn1nc2cc1CSc1cc(c3ccccc3c1)OCCCc1c(C(=O)O)n(C)c3c(c(Cl)ccc13)-c1c(nn3c1CCCC3)CSC2 (single isomer, unassigned) [Example 2B, (Z)-1^6-Chloro-1^1,6^1-dimethyl-2^4,2^5,2^6,2^7-tetrahydro-1^1H,6^1H-10-oxa-4,8-dithia-2(3,2)-pyrazolo[1,5-a]pyridina-1(7,3)-indola-6(3,5)-pyrazola-9(3,1)-naphthalenacyclotridecaphane-1^2-carboxylic acid]	7.00 to 8.00	< 6.00
Cc1[nH]nc2c1-c1c(F)ccc3c(c(C(=O)O)n(C)c13)CCCOc1cc(cc3ccccc13)SCc1cc(nn1C(C)C)CSC2 (single isomer, unassigned) [Example 7B, (Z)-1^6-Fluoro-6^1-isopropyl-1^1,2^5-dimethyl-1^1H,2^1H,6^1H-10-oxa-4,8-dithia-1(7,3)-indola-2(4,3),6(3,5)-dipyrazola-9(3,1)-naphthalenacyclotridecaphane-1^2-carboxylic acid]	> 8.00	–
(Z)-2^5-(tert-Butoxycarbonyl)-1^6-chloro-1^1,6^1-dimethyl-2^4,2^5,2^6,2^7-tetrahydro-1^1H,6^1H-10-oxa-4,8-dithia-2(3,2)-pyrazolo[1,5-a]pyrazina-1(7,3)-indola-6(3,5)-pyrazola-9(3,1)-naphthalenacyclotridecaphane-1^2-carboxylic acid [Example 22A]	–	6.00 to 7.00
(Z)-2^5-(tert-Butoxycarbonyl)-1^6-chloro-1^1,6^1-dimethyl-2^4,2^5,2^6,2^7-tetrahydro-1^1H,6^1H-10-oxa-4,8-dithia-2(3,2)-pyrazolo[1,5-a]pyrazina-1(7,3)-indola-6(3,5)-pyrazola-9(3,1)-naphthalenacyclotridecaphane-1^2-carboxylic acid [Example 22B]	–	< 6.00
(Z)-6^1-Ethyl-1^6-fluoro-1^1,2^1,2^3-trimethyl-1^1H,2^1H,6^1H-10-oxa-4,8-dithia-1(7,3)-indola-2(4,5),6(3,5)-dipyrazola-9(3,1)-naphthalenacyclotridecaphane-1^2-carboxylic acid [Example 15B]	–	< 6.00
